Assay results: paper PMC6789111, “Crossing the blood-brain-barrier with nanoligand drug carriers self-assembled from a phage display peptide” (Nature Communications, 2019)
Where two headings read alike, the source gives them in different places. Peptide text beside a SMILES is read from it. * marks the point of attachment. 5FAM = O=C1OC2(c3ccc(O)cc3Oc3cc(O)ccc32)c2ccc(C(=O)*)cc21

Assays:
hCMEC/D3 cells [1] = assay: Cell uptake by flow cytometry; assay type: cell-based, human; conditions: 5 µM, foetal bovine serum, 16 h, 37 °C (Supplementary Fig. 12)
Description: Peptide internalisation was measured by flow cytometry (FACS ArrayTM Cell Analysis, Becton, Dickinson and Company, NJ, USA). Cells (1 × 10^5 cm^−2) were seeded on 24-well plates and grown 1 day at 37 °C and 5% CO2 in order to reach 60–70% confluence. The cells were washed 3 times with pre-heated PBS. The uptake studies were initiated by adding 500 µL of 5 µM fluorescence-labelled peptides (diluted in cell medium containing with different serum concentration). Serum concentration in incubation varied from 5 to 20% (v/v). […] A total of 10,000 cells were analysed by flow cytometry.

[2] = mouse, in vivo, iv
Description: In some experiments, animals were transcardially perfused with 10 mL 0.9% (w/v) saline at a rate of 2 mL min^−1 through the left ventricle to remove the blood from the brain, followed by 20 mL 4% (v/v) paraformaldehyde in phosphate buffered saline (PBS, pH = 7.4). The brain was removed and post-fixed overnight in 4% (v/v) paraformaldehyde followed by dehydration with 30% (w/v) sucrose solution in PBS at 4 °C. Frozen sections were cut on a cryostat (Thermo fisher, USA). […] To visualise neurons, microglial and astrocytes, sections were first stained with antibodies against Tuj1 (1:500), Iba1 (1:300) and GFAP (1:300), respectively, and then with donkey anti-mouse Alexa Fluor®555 (1:1000 dilution) secondary antibody. DAPI staining was performed to visualise cell nuclei.

hCMEC/D3 cells [3] = tested on: hCMEC/D3 cells
Description: LDH release was followed at 24 h post transfection procedures. The measurement was performed using CytoTox96® Non-Radioactive Cytotoxicity Assay kit (Promega, WI, USA)[43]. The maximum amount of LDH in the cells, induced by the addition of a lysis solution, was measured and used as a 100% LDH release and compared with peptidoplex and siPORT-siRNA complex-induced LDH release as well as to spontaneous cellular LDH release (untreated cells).

TNF-α = conditions: Ave.
Description: Tissues were sectioned at a […] thickness.
Blood samples were collected for determination of red blood cell count, white blood cell count, haemoglobin, haematocrit, mean corpuscular volume, mean corpuscular haemoglobin, mean corpuscular haemoglobin concentration and platelet count (XFA6030, Perlong Medical Inc., China). Hippocampus was dissected out, rinsed in ice-cold PBS thoroughly, weighted and immediately frozen in liquid nitrogen. Tissues were cut into small pieces and homogenized in 1 mL ice-cold PBS with a glass homogeniser and sonicated with an ultrasonic cell disrupter to break the cell membranes. Homogenates were centrifuges for 5 min at 5,000 × g and supernatants were assayed immediately for quantitative determination of TNF-α, IL-6, IL-1β, Iba-1 and GFAP by corresponding ELISA kits, respectively in accordance with manufacturer’s instructions.

IL-1β = assay: ELISA of IL-1β in hippocampus; assay type: in vivo, ICR mice; conditions: Ave.

CC[C@H](C)[C@H](NC(=O)[C@H](CC(N)=O)NC(=O)[C@H](Cc1c[nH]cn1)NC(=O)[C@@H](NC(=O)[C@@H]1CCCN1C(=O)[C@H](CCCNC(=N)N)NC(=O)[C@H](Cc1ccc(O)cc1)NC(=O)CNC(=O)[C@H](CS)NC(=O)c1ccc2c(c1)C(=O)OC21c2ccc(O)cc2Oc2cc(O)ccc21)C(C)C)C(=O)N[C@@H](CCCNC(=N)N)C(=O)NCC(=O)N[C@@H](Cc1c[nH]cn1)C(=O)N[C@@H](Cc1c[nH]c2ccccc12)C(=O)N[C@@H](C)C(=O)N1CCC[C@H]1C(=O)NCC(=O)O [FAM-CGY] (5FAM-CGYRPVHNIRGHWAPG-OH)
effect of serum proteins on association with endothelial cells (hCMEC/D3 cells [1]): not affected by the presence of serum proteins
association with brain parenchymal cells [2]: neurons and microglial cells, but not with astrocytes
plasma membrane integrity (extracellular LDH) (hCMEC/D3 cells [3]): neither FAM-CGY NLCs nor FAM-CGY/siRNA nanoparticles perturbed plasma membrane integrity
TNF-α in hippocampus (Figure 6e) (TNF-α; 4 h after i.v.): 13.40
TNF-α in hippocampus (Figure 6e) (TNF-α; 24 h after i.v. (LPS 24 h)): 12.87
TNF-α in hippocampus (Figure 6e) (TNF-α; 72 h after i.v.): 12.94
IL-1β in hippocampus (Figure 6g) (IL-1β; 4 h after i.v.): 21.06
IL-1β in hippocampus (Figure 6g) (IL-1β; 24 h after i.v. (LPS 24 h)): 23.58
IL-1β in hippocampus (Figure 6g) (IL-1β; 72 h after i.v.): 22.65
